Results: ChEMBL document CHEMBL5042558, “Selective Macrocyclic Inhibitors of DYRK1A/B” (ACS Med Chem Lett, 2022)
pIC50: −log10 of the molar value. Active and inactive are the calls of the source. No cut-off for these calls is given here.

How the values were obtained:
CAL-27 [1] = assay: Induction of apoptosis in human CAL-27 cells assessed as increase in cleaved-PARP level at 1 uM after 24 hrs by Immunoblot analysis relative to control; assay type: functional
CAL-27 [2] = assay: Induction of apoptosis in human CAL-27 cells assessed as increase in cleaved-PARP level at 10 uM after 24 hrs by Immunoblot analysis relative to control; assay type: functional
CAL-27 [3] = assay: Induction of apoptosis in human CAL-27 cells assessed as PARP level at 1 uM after 24 hrs by Immunoblot analysis relative to control; assay type: functional
CAL-27 [4] = assay: Induction of apoptosis in human CAL-27 cells assessed as PARP level at 10 uM after 24 hrs by Immunoblot analysis relative to control; assay type: functional
CAL-27 [5] = assay: Induction of apoptosis in human CAL-27 cells assessed as BCL-xL level at 1 uM after 24 hrs by Immunoblot analysis relative to control; assay type: functional
CAL-27 [6] = assay: Induction of apoptosis in human CAL-27 cells assessed as BCL-xL level at 10 uM after 24 hrs by Immunoblot analysis relative to control; assay type: functional
CAL-27 [7] = assay: Antiproliferative activity against human CAL-27 cells assessed as reduction in cell viability at 10 uM measured after 72 hrs by Celltiter-Glo luminescent assay; assay type: functional
FaDu = assay: Antiproliferative activity against human FaDu cells assessed as reduction in cell viability at 10 uM measured after 72 hrs by Celltiter-Glo luminescent assay; assay type: functional
HEK-293T = assay: Antiproliferative activity against human HEK293T cells assessed as reduction in cell viability at 10 uM measured after 72 hrs by Celltiter-Glo luminescent assay; assay type: toxicity, cell-based
CAL-27 [8] = assay: Induction of apoptosis in human CAL-27 cells assessed as decrease in AKT phosphorylation at S473 residue at 0.5 uM after 24 hrs by Immunoblot analysis relative to control; assay type: functional; design: scale not given: the % may be the effect or the level left
CAL-27 [9] = assay: Induction of apoptosis in human CAL-27 cells assessed as decrease in AKT phosphorylation at S473 residue at 1 uM after 24 hrs by Immunoblot analysis relative to control; assay type: functional; design: scale not given: the % may be the effect or the level left
CAL-27 [10] = assay: Induction of apoptosis in human CAL-27 cells assessed as decrease in AKT phosphorylation at S473 residue at 5 uM after 24 hrs by Immunoblot analysis relative to control; assay type: functional; design: scale not given: the % may be the effect or the level left
CAL-27 [11] = assay: Induction of apoptosis in human CAL-27 cells assessed as decrease in AKT phosphorylation at S473 residue at 10 uM after 24 hrs by Immunoblot analysis relative to control; assay type: functional; design: scale not given: the % may be the effect or the level left
CAL-27 [12] = assay: Induction of apoptosis in human CAL-27 cells assessed as decrease in FOXO3A phosphorylation at serine 253 residue at 0.5 uM after 24 hrs by Immunoblot analysis relative to control; assay type: functional; design: scale not given: the % may be the effect or the level left
CAL-27 [13] = assay: Induction of apoptosis in human CAL-27 cells assessed as decrease in FOXO3A phosphorylation at serine 253 residue at 1 uM after 24 hrs by Immunoblot analysis relative to control; assay type: functional; design: scale not given: the % may be the effect or the level left
CAL-27 [14] = assay: Induction of apoptosis in human CAL-27 cells assessed as decrease in FOXO3A phosphorylation at serine 253 residue at 5 uM after 24 hrs by Immunoblot analysis relative to control; assay type: functional; design: scale not given: the % may be the effect or the level left
CAL-27 [15] = assay: Induction of apoptosis in human CAL-27 cells assessed as decrease in FOXO3A phosphorylation at serine 253 residue at 10 uM after 24 hrs by Immunoblot analysis relative to control; assay type: functional; design: scale not given: the % may be the effect or the level left
[16] = molecular target: Serine/threonine-protein kinase ATR (Homo sapiens) (UniProt Q13535); assay: Inhibition of ATR (unknown origin) in human CAL-27 cells measured after 6 hrs by select screen kinase assay; assay type: cell-based
[17] = molecular target: Serine/threonine-protein kinase Sgk1 (Homo sapiens, UniProt O00141); assay: Inhibition of SGK (unknown origin) at 1 uM by kinome scan method
Sequence of Serine/threonine-protein kinase Sgk1 (O00141 whole entry): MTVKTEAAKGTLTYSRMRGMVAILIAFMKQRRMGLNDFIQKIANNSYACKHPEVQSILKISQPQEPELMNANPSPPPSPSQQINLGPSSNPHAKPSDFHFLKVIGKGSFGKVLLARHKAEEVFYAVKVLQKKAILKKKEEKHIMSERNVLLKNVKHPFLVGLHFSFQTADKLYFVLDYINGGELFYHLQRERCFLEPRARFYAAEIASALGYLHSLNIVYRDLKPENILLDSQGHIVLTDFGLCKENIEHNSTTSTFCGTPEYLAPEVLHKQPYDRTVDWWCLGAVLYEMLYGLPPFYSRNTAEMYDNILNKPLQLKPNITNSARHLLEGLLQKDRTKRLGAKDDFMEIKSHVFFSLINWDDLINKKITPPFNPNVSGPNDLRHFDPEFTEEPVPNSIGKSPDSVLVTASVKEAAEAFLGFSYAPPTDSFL

[18] = molecular target: Dual specificity mitogen-activated protein kinase kinase 4 (Homo sapiens, UniProt P45985); assay: Inhibition of MEK4 (unknown origin) at 1 uM by kinome scan method
[19] = molecular target: Mitogen-activated protein kinase kinase kinase 19 (Homo sapiens, UniProt Q56UN5); assay: Inhibition of YSK4 (unknown origin) at 1 uM by kinome scan method
[20] = molecular target: Ribosomal protein S6 kinase alpha-6 (Homo sapiens, UniProt Q9UK32); assay: Inhibition of RSK4 (unknown origin) at 1 uM by kinome scan method
Sequence of Ribosomal protein S6 kinase alpha-6 (Q9UK32 whole entry): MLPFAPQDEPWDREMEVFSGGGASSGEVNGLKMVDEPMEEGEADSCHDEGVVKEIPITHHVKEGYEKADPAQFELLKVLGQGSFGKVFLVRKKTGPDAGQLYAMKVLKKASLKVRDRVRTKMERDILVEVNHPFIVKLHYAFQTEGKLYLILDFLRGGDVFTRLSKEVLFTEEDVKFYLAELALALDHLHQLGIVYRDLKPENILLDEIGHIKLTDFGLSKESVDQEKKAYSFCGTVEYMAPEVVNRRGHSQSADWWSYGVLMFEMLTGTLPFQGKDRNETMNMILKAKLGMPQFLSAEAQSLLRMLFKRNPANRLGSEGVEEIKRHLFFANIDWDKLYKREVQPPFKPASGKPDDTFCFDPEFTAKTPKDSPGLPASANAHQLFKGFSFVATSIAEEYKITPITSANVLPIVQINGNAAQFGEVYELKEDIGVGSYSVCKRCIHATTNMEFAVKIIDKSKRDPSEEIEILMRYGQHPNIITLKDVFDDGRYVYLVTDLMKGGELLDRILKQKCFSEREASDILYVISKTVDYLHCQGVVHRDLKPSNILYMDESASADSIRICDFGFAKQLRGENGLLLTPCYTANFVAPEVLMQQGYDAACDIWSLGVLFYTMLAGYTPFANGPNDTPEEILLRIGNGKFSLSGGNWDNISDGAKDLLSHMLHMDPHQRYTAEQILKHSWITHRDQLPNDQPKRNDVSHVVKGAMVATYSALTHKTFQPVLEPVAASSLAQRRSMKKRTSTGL

Focal adhesion kinase 1 [21] = molecular target: T1, Focal adhesion kinase 1 (Homo sapiens, UniProt Q05397); assay: Inhibition of FAK (unknown origin) at 1 uM by kinome scan method
T1 sequence (Q05397 whole entry): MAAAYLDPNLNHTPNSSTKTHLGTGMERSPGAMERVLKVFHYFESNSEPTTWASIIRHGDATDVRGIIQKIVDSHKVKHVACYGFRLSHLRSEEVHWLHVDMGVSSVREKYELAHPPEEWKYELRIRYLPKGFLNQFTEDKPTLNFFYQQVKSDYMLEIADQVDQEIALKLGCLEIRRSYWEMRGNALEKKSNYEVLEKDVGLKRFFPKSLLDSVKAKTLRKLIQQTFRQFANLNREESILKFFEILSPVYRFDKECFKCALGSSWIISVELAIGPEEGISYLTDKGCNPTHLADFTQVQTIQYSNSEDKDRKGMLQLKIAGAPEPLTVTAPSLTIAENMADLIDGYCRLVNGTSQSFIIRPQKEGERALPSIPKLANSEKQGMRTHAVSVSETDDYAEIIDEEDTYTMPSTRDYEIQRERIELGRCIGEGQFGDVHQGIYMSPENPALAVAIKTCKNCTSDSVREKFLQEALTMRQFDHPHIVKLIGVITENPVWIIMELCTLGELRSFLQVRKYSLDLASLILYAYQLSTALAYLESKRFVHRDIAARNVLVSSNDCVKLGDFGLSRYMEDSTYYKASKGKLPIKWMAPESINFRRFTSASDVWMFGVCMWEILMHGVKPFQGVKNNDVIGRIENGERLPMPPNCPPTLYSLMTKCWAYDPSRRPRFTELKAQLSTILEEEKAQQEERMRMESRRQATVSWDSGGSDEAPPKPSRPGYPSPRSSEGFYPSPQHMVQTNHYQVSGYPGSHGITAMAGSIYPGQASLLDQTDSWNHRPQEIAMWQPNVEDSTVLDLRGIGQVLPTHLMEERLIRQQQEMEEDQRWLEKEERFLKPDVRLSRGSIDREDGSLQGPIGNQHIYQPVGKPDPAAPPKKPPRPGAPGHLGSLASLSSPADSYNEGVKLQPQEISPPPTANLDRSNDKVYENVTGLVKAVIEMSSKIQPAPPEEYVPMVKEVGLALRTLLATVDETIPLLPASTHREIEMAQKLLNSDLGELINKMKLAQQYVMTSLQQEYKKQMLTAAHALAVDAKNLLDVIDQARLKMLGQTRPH

[22] = molecular target: T2, Ribosomal protein S6 kinase alpha-3 (Homo sapiens, UniProt P51812); assay: Inhibition of RSK2 (unknown origin) at 1 uM by kinome scan method
T2 sequence (P51812 whole entry): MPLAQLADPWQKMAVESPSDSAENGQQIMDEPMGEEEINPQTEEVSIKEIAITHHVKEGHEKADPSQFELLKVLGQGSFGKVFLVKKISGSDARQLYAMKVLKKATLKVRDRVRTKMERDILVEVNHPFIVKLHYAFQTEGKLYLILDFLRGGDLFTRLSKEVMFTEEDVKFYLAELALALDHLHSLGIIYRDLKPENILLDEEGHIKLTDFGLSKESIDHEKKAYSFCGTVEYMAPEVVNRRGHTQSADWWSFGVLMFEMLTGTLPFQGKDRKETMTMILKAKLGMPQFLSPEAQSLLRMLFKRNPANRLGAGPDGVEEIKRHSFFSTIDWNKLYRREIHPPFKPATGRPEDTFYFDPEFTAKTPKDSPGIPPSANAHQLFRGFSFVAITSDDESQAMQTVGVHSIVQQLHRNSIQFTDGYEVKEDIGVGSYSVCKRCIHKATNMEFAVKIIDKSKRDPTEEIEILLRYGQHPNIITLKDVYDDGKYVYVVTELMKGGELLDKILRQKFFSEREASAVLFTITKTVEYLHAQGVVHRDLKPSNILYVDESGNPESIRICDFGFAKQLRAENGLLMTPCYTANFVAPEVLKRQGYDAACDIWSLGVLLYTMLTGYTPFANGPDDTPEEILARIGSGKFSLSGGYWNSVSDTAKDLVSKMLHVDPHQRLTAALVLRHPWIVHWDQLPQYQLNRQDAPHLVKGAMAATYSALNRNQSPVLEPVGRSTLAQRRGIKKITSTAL

Misshapen-like kinase 1 = Misshapen-like kinase 1 (Homo sapiens, UniProt Q8N4C8); assay: Inhibition of MINK1 (unknown origin) at 1 uM by kinome scan method
[23] = molecular target: Mitogen-activated protein kinase 8 (Homo sapiens, UniProt P45983); assay: Inhibition of JNK1 (unknown origin) in human CAL-27 cells measured after 6 hrs by select screen kinase assay; assay type: cell-based
[24] = molecular target: Mitogen-activated protein kinase 9 (Homo sapiens, UniProt P45984); assay: Inhibition of JNK2 (unknown origin) in human CAL-27 cells measured after 6 hrs by select screen kinase assay; assay type: cell-based
Sequence of Mitogen-activated protein kinase 9 (P45984 whole entry): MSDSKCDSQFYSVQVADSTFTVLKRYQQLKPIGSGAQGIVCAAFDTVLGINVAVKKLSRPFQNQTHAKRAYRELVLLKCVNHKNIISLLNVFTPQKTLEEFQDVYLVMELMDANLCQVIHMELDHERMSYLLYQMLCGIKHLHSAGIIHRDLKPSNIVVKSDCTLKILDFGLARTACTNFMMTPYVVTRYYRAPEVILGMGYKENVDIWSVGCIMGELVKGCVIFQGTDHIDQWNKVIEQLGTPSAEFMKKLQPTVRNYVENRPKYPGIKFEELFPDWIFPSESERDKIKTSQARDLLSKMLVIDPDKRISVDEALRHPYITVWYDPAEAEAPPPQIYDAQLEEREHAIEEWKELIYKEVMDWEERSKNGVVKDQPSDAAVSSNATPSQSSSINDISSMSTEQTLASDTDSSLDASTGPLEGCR

[25] = molecular target: Mitogen-activated protein kinase 10 (Homo sapiens, UniProt P53779); assay: Inhibition of JNK3 (unknown origin) in human CAL-27 cells measured after 6 hrs by select screen kinase assay; assay type: cell-based
Focal adhesion kinase 1 [26] = molecular target: T1, Focal adhesion kinase 1; assay: Inhibition of FAK (unknown origin) in human CAL-27 cells measured after 6 hrs by select screen kinase assay; assay type: cell-based
[27] = molecular target: Ribosomal protein S6 kinase alpha-1 (Homo sapiens, UniProt Q15418); assay: Inhibition of RSK1 (unknown origin) in human CAL-27 cells measured after 6 hrs by select screen kinase assay; assay type: cell-based
[28] = molecular target: T2, Ribosomal protein S6 kinase alpha-3; assay: Inhibition of RSK2 (unknown origin) in human CAL-27 cells measured after 6 hrs by select screen kinase assay; assay type: cell-based
[29] = molecular target: Ribosomal protein S6 kinase alpha-2 (Homo sapiens, UniProt Q15349); assay: Inhibition of RSK3 (unknown origin) in human CAL-27 cells measured after 6 hrs by select screen kinase assay; assay type: cell-based
Sequence of Ribosomal protein S6 kinase alpha-2 (Q15349 whole entry): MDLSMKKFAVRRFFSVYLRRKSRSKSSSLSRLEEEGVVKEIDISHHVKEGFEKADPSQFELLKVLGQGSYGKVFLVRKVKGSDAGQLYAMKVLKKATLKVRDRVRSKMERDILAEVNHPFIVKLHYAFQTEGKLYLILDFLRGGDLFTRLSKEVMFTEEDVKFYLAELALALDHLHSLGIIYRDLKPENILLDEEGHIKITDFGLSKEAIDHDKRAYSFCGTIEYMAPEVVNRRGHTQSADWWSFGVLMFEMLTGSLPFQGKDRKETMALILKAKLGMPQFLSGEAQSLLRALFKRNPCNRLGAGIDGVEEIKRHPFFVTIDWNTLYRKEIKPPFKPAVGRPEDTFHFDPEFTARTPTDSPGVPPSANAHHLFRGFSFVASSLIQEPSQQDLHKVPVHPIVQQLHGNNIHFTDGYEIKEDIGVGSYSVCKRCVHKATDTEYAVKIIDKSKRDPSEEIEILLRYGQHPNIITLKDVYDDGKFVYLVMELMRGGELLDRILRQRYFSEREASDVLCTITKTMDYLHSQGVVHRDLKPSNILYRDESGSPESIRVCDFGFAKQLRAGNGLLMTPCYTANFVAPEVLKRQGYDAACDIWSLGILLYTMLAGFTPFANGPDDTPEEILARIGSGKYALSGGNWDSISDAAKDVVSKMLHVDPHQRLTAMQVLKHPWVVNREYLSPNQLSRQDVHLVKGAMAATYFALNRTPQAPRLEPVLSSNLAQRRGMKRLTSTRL

[30] = Half life in C57BL/6 mouse at 10 mg/kg, po measured upto 8 hrs by LC-MS/MS analysis; assay type: ADME, organism-based; details: in vivo
[31] = Half life in C57BL/6 mouse at 2 mg/kg, iv measured upto 8 hrs by LC-MS/MS analysis; assay type: ADME, organism-based; details: in vivo
[32] = AUC (0-infinity) in C57BL/6 mouse at 10 mg/kg, po measured upto 8 hrs by LC-MS/MS analysis; assay type: ADME, organism-based; design: route oral, dose 10 mg/kg, time <=8; details: C57BL/6, mouse, in vivo
[33] = AUC (0-infinity) in C57BL/6 mouse at 2 mg/kg, iv measured upto 8 hrs by LC-MS/MS analysis; assay type: ADME, organism-based; design: route intravenous, dose 2 mg/kg, time <=8; details: in vivo
[34] = Clearance in C57BL/6 mouse at 10 mg/kg, po measured upto 8 hrs by LC-MS/MS analysis; assay type: ADME, organism-based; details: in vivo
[35] = Clearance in C57BL/6 mouse at 2 mg/kg, iv measured upto 8 hrs by LC-MS/MS analysis; assay type: ADME, organism-based; details: in vivo
[36] = Cmax in C57BL/6 mouse at 10 mg/kg, po measured upto 8 hrs by LC-MS/MS analysis; assay type: ADME, organism-based; design: route oral, dose 10 mg/kg, time <=8; details: in vivo
[37] = Cmax in C57BL/6 mouse at 2 mg/kg, iv measured upto 8 hrs by LC-MS/MS analysis; assay type: ADME, organism-based; design: route intravenous, dose 2 mg/kg, time <=8; details: in vivo
[38] = Oral bioavailability in C57BL/6 mouse at 10 mg/kg measured upto 8 hrs by LC-MS/MS analysis; assay type: ADME, organism-based; details: C57BL/6, mouse, in vivo
[39] = molecular target: T3, Dual specificity tyrosine-phosphorylation-regulated kinase 1B (Homo sapiens, UniProt Q9Y463); assay: Inhibition of DYRK1B (unknown origin) measured after 6 hrs in presence of ATP by Z'-LYTE assay
T3 sequence (Q9Y463 whole entry): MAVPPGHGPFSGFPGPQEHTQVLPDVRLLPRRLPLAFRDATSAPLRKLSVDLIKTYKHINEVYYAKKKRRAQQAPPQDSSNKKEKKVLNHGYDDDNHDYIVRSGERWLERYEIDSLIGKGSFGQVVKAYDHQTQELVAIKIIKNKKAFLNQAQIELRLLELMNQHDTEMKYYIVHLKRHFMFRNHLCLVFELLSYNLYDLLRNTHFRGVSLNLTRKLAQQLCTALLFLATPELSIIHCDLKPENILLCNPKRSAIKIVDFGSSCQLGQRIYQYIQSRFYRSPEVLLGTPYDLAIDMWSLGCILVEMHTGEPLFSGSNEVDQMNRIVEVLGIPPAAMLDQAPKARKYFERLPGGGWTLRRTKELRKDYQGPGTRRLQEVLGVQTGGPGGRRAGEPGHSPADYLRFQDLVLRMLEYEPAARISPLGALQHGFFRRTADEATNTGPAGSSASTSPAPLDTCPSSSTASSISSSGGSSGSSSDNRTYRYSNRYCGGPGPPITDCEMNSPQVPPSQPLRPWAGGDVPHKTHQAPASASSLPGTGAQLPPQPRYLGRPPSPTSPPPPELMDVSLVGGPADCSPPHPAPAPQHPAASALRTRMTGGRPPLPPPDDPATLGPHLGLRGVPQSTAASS

[40] = molecular target: T3, Dual specificity tyrosine-phosphorylation-regulated kinase 1B; assay: Inhibition of DYRK1B (unknown origin) at 1 uM by kinomescan method

COc1c2c(nn1C)CN(C(C)C)C(=O)CCCn1cc(c(C(F)(F)F)n1)-c1c(C)[nH]c3ncc-2cc13
Activity (CAL-27 [1]): 119%
Activity (CAL-27 [2]): 145%
Activity (CAL-27 [3]): 113%
Activity (CAL-27 [4]): 117%
Activity (CAL-27 [5]): 79%
Activity (CAL-27 [6]): 61%

O=C(O)c1ccc2c(c1)nc(Nc1cccc(Cl)c1)c1ccncc12 [SILMITASERTIB]
Activity (CAL-27 [1]): 201%
Activity (CAL-27 [2]): 871%
Activity (CAL-27 [7]): 80%
Activity (FaDu): 75%
Activity (HEK-293T): Active
Activity (CAL-27 [3]): 127%
Activity (CAL-27 [4]): 137%
Activity (CAL-27 [5]): 80%
Activity (CAL-27 [6]): 103%
Activity (CAL-27 [8]): 54%
Activity (CAL-27 [9]): 53%
Activity (CAL-27 [10]): 85%
Activity (CAL-27 [11]): 85%
Activity (CAL-27 [12]): 103%
Activity (CAL-27 [13]): 150%
Activity (CAL-27 [14]): 139%
Activity (CAL-27 [15]): 150%
inhibition [16]: Active

CN1Cc2nn(C)c(C#N)c2-c2cnc3[nH]c(F)c(c3c2)-c2cn(nc2C(F)(F)F)CCCC1=O
pIC50 [17]: 6.16
Activity (CAL-27 [1]): 128%
Activity (CAL-27 [2]): 540%
pIC50 [18]: 6.88
pIC50 [19]: 5.79
pIC50 [20]: 7.43
pIC50 (Focal adhesion kinase 1 [21]): 6.68
pIC50 [22]: 6.74
pIC50 (Misshapen-like kinase 1): 6.94
pIC50 [23]: 5.95
pIC50 [24]: 5.96
pIC50 [25]: < 5.00
pIC50 (Focal adhesion kinase 1 [26]): 7.05
pIC50 [27]: 7.09
pIC50 [28]: 7.10
pIC50 [29]: 7.21
Activity (CAL-27 [7]): 45%
Activity (FaDu): 40%
Activity (HEK-293T): Non-Toxic
Activity (CAL-27 [3]): 104%
Activity (CAL-27 [4]): 93%
Activity (CAL-27 [5]): 61%
Activity (CAL-27 [6]): 58%
Activity (CAL-27 [8]): 81%
Activity (CAL-27 [9]): 85%
Activity (CAL-27 [10]): 74%
Activity (CAL-27 [11]): 63%
Activity (CAL-27 [12]): 56%
Activity (CAL-27 [13]): 49%
Activity (CAL-27 [14]): 10%
Activity (CAL-27 [15]): 38%
half-life [30]: 2.4 h
half-life [31]: 1.2 h
AUC(0-inf) [32]: 5770 ng·h/mL
AUC(0-inf) [33]: 8950 ng·h/mL
CL/F [34]: 29.3 mL/min/kg
clearance [35]: 5.9 mL/min/kg
Cmax [36]: 6.4 µM
Cmax [37]: 34.1 µM
bioavailability [38]: 12.3%

CN1Cc2nn(C)c(C#N)c2-c2cnc3[nH]cc(c3n2)-c2cn(nc2C(F)(F)F)CCCC1=O
pIC50 [39]: 7.74

CN1Cc2nn(C)cc2-c2cnc3[nH]cc(c3c2)-c2cnn(c2)CCCC1=O
pIC50 [39]: 7.15
pIC50 [40]: 7.72

Cc1[nH]c2ncc3cc2c1-c1cn(nc1C(F)(F)F)CCCC(=O)N(C)Cc1nn(C)c(C#N)c1-3
Activity (CAL-27 [1]): 133%
Activity (CAL-27 [2]): 190%
Activity (CAL-27 [3]): 120%
Activity (CAL-27 [4]): 134%
Activity (CAL-27 [5]): 103%
Activity (CAL-27 [6]): 105%
